The record followed here is patent US10774083B2, “Heterocyclic amide compound” (TAKEDA PHARMACEUTICAL COMPANY LIMITED, priority 2016, dated 2020).

The target of assay [1] is T1, human PRS protein (His-Avi-hEPRS (998-1512)) (Homo sapiens, UniProt P07814).
T1 construct: to construct His-Avi-hEPRS (998-1512) expression plasmid; His tag (N); Avi tag (N); TEV cleavage site (ENLYFQG, then S; inferred from the forward primer hEPRS-TEV-NheF) (N); made in house; host or cells: E. coli BL21(DE3)
T1 sequence (P07814 998-1512 limits assumed): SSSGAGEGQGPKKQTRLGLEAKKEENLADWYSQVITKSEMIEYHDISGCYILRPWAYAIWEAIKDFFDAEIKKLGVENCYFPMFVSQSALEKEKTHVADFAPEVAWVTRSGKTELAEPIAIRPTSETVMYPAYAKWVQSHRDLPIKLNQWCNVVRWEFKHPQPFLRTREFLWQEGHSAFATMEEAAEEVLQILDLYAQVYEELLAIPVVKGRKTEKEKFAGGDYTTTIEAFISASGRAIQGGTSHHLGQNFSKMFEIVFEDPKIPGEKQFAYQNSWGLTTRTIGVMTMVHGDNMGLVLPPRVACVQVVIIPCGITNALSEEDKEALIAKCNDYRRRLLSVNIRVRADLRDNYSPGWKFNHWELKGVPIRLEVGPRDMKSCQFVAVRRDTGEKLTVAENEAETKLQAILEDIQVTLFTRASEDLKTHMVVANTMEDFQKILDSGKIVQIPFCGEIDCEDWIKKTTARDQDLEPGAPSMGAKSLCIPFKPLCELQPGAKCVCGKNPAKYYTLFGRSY
Put plainly: PRS inhibitory activity ([32P]pyrophosphate exchange enzyme assay). The assay is classed as biochemical. Particulars: 300 nM test compound; read-out: inhibitory rate (%) of PRS. An outline of the steps: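 Compound was pre-incubated 60 min with 40 nM His-Avi-hEPRS (998-1512) (stock, E. coli-expressed) in Tris pH 7.5/KCl/DTT/Tween/MgCl2. Reaction began with substrate mix containing 300 μM ATP, 160 μM L-proline, 400 μM [32P]pyrophosphate (stock levels) and ran 30 min at room temperature. Charcoal-bound radioactivity was counted; inhibition was relative to no-reaction control.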

For assay [2], the system named is human ovarian cancer cells A2780. Put plainly: proliferation inhibitory activity against human ovarian cancer cell A2780 (CellTiter-Glo). The assay is classed as cell-based. Particulars: A2780, 72 h, 1 μM test compound, 3 days of culture, read-out: proliferation inhibitory rate (%) of A2780 cells. How it is done:
The proliferation inhibitory activity of the compound of the present invention against human ovarian cancer cell A2780 was evaluated by the following method.
Human ovarian cancer cells A2780 were seeded in a 384 well culture plate at 1000 cells in 30 μL of medium per well by using RPMI-1640 medium (Wako Pure Chemical Industries, Ltd.) containing 10% fetal bovine serum and penicillin/streptomycin. The next day, 10 μL of RPMI-1640 medium containing the test compound was added to the cells. After 3 days of culture, 20 μL of CellTiter-Glo Luminescent Cell Viability Assay solution (Promega) was added. The luminescence signal was measured using EnVision (PerkinElmer) and the inhibitory rate (%) of the test compound was calculated with a well free of seeding of cell as 100% inhibition.
A general note: ATP-based viability assays read luminescence as a measure of living cells.

For the molecule `Cn1cc(NC(=O)c2cccc(CNC(=O)c3nccc4nc(C5CCCC5)[nH]c34)c2)cn1` [Example 106, 2-cyclopentyl-N-(3-((1-methyl-1H-pyrazol-4-yl)carbamoyl)benzyl)-3H-imidazo[4,5-c]pyridine-4-carboxamide], in assay [1], the inhibition at 0.3 µM was 99%. The inhibition at 1 µM in assay [2] amounted to 84%.
As to `Cn1cc(-c2cc(F)cc(CNC(=O)c3nccc4nc(C5CCCC5)[nH]c34)c2)cn1` [Example 86, 2-cyclopentyl-N-(3-fluoro-5-(1-methyl-1H-pyrazol-4-yl)benzyl)-3H-imidazo[4,5-c]pyridine-4-carboxamide], in assay [1], the inhibition at 0.3 µM was determined as 101%. Besides, the inhibition at 1 µM in assay [2] turned out to be 97%.
For `Cn1cc(-c2cc(F)cc(CNC(=O)c3ncnc4nc(C5CCCC5)n(C)c34)c2)nn1` [Example 7, 8-cyclopentyl-N-(3-fluoro-5-(1-methyl-1H-1,2,3-triazol-4-yl)benzyl)-7-methyl-7H-purine-6-carboxamide], the inhibition at 0.3 µM in assay [1] worked out at 102%. Further, the inhibition at 1 µM in assay [2] stood at 95%.
The like results for `Cn1cc(-c2cc(F)cc(CNC(=O)c3ncc(F)c4nc(C5CCCC5)n(C)c34)c2)cn1` [Example 113, 2-cyclopentyl-7-fluoro-N-(3-fluoro-5-(1-methyl-1H-pyrazol-4-yl)benzyl)-3-methyl-3H-imidazo[4,5-c]pyridine-4-carboxamide] were, in that order, 101% and 99%.
As to `Cn1c(C2CCCC2)nc2ncnc(C(=O)NCc3cc(F)cc(-c4cnn(C(C)(C)CO)c4)c3)c21` [Example 30, 8-cyclopentyl-N-(3-fluoro-5-(1-(1-hydroxy-2-methylpropan-2-yl)-1H-pyrazol-4-yl)benzyl)-7-methyl-7H-purine-6-carboxamide], the inhibition at 0.3 µM in assay [1] was 102%. Also, the inhibition at 1 µM in assay [2] amounted to 99%.
For `Cn1cc(-c2cc(F)cc(CNC(=O)c3ncnc4nc(C5CCCC5)n(C)c34)c2)cn1` [Example 3, 8-cyclopentyl-N-(3-fluoro-5-(1-methyl-1H-pyrazol-4-yl)benzyl)-7-methyl-7H-purine-6-carboxamide], in that order: 101% and 99%.
On to `Cn1cc(-c2cc(F)cc(CNC(=O)c3nccc4nc(Cc5ccccc5)[nH]c34)c2)cn1` [Example 109, 2-benzyl-N-(3-fluoro-5-(1-methyl-1H-pyrazol-4-yl)benzyl)-3H-imidazo[4,5-c]pyridine-4-carboxamide], for which the inhibition at 0.3 µM in assay [1] was determined as 100%. The inhibition at 1 µM in assay [2] is 84%.
On to `Cn1cc(-c2cc(F)cc(CNC(=O)c3ncnc4nc(C5CCCC5)n(C)c34)c2)ccc1=O` [Example 4, 8-cyclopentyl-N-(3-fluoro-5-(1-methyl-6-oxo-1,6-dihydropyridin-3-yl)benzyl)-7-methyl-7H-purine-6-carboxamide], for which, in assay [1], the inhibition at 0.3 µM worked out at 101%. The inhibition at 1 µM in assay [2] turned out to be 99%.
For `Cn1cc(-c2cc(F)cc(CNC(=O)c3nccc4nc(C5CCCC5)[nH]c34)c2)nn1` [Example 89, 2-cyclopentyl-N-(3-fluoro-5-(1-methyl-1H-1,2,3-triazol-4-yl)benzyl)-3H-imidazo[4,5-c]pyridine-4-carboxamide], in that order: 101% and 98%.
The like results for `Cn1cc(-c2cc(F)cc(CNC(=O)c3nccc4nc(C5CCCC5)n(CC(N)=O)c34)c2)cn1` [Example 128, 3-(2-amino-2-oxoethyl)-2-cyclopentyl-N-(3-fluoro-5-(1-methyl-1H-pyrazol-4-yl)benzyl)-3H-imidazo[4,5-c]pyridine-4-carboxamide] were, in that order, 102% and 97%.
The like results for `Cc1cc(N2CCC(C#N)(C3CCC3)C2=O)cc(C(=O)NCc2cc(F)cc(-c3cnn(C)c3)c2)n1` (centres unmarked) [Example 229, 4-(3-cyano-3-cyclobutyl-2-oxopyrrolidin-1-yl)-N-(3-fluoro-5-(1-methyl-1H-pyrazol-4-yl)benzyl)-6-methylpyridine-2-carboxamide] were, in that order, 100% and 91%.
On to `Cn1ccc(-c2cc(F)cc(CNC(=O)c3nccc4nc(C5CCCC5)n(C)c34)c2)cc1=O` [Example 98, 2-cyclopentyl-N-(3-fluoro-5-(1-methyl-2-oxo-1,2-dihydropyridin-4-yl)benzyl)-3-methyl-3H-imidazo[4,5-c]pyridine-4-carboxamide], for which the inhibition at 0.3 µM in assay [1] was 101%. The inhibition at 1 µM in assay [2] was 98%.
As for `Cc1cc(CNC(=O)c2cc(N3CC[C@@](C#N)(C4CC4)C3=O)cc(C)n2)cc(-c2cnn(C)c2)c1` [Example 217, 4-((3S)-3-cyano-3-cyclopropyl-2-oxopyrrolidin-1-yl)-6-methyl-N-(3-methyl-5-(1-methyl-1H-pyrazol-4-yl)benzyl)pyridine-2-carboxamide], the inhibition at 0.3 µM in assay [1] turned out to be 101%. Also, the inhibition at 1 µM in assay [2] amounted to 80%.
Take `Cn1cc(-c2cc(F)cc(CNC(=O)c3nccc4nc(C5CCCC5)n(CC(=O)O)c34)c2)cn1` [Example 127, (2-cyclopentyl-4-((3-fluoro-5-(1-methyl-1H-pyrazol-4-yl)benzyl)carbamoyl)-3H-imidazo[4,5-c]pyridin-3-yl)acetic acid]: in assay [1], the inhibition at 0.3 µM was determined as 101%. Moreover, the inhibition at 1 µM in assay [2] is 70%.
For `COc1nc(C(=O)NCc2cc(F)cc(-c3cnn(C)c3)c2)c2[nH]c(C3CCCC3)nc2n1` [Example 18, 8-cyclopentyl-N-(3-fluoro-5-(1-methyl-1H-pyrazol-4-yl)benzyl)-2-methoxy-7H-purine-6-carboxamide], in that order: 99% and 77%.
Consider `Cn1cc(-c2cc(F)c(F)c(CNC(=O)c3nccc4nc(C5CCCC5)[nH]c34)c2)cn1` [Example 90, 2-cyclopentyl-N-(2,3-difluoro-5-(1-methyl-1H-pyrazol-4-yl)benzyl)-3H-imidazo[4,5-c]pyridine-4-carboxamide], for which, in assay [1], the inhibition at 0.3 µM was determined as 101%. Moreover, in assay [2], the inhibition at 1 µM is 96%.
For `Cc1cc(N2CC[C@@](C#N)(C3CC3)C2=O)cc(C(=O)NCc2cc(F)cc(-c3cnc(C)s3)c2)n1` [Example 187, 4-((3S)-3-cyano-3-cyclopropyl-2-oxopyrrolidin-1-yl)-N-(3-fluoro-5-(2-methyl-1,3-thiazol-5-yl)benzyl)-6-methylpyridine-2-carboxamide], in that order: 99% and 65%.
`Cc1cc(N2CCC(C)(C)C2=O)cc(C(=O)NCc2cc(F)cc(-c3cnn(C)c3)c2)n1` [Example 165, 4-(3,3-dimethyl-2-oxopyrrolidin-1-yl)-N-(3-fluoro-5-(1-methyl-1H-pyrazol-4-yl)benzyl)-6-methylpyridine-2-carboxamide]: the inhibition at 0.3 µM in assay [1] was 100%. For the same molecule, the inhibition at 1 µM in assay [2] was determined as 75%.
For `Cn1cc(-c2cc(F)cc(CNC(=O)c3ncnc4nc(C5CCC(F)(F)C5)[nH]c34)c2)cn1` (centres unmarked) [Example 40, 8-(3,3-difluorocyclopentyl)-N-(3-fluoro-5-(1-methyl-1H-pyrazol-4-yl)benzyl)-7H-purine-6-carboxamide], in that order: 102% and 98%.
The like results for `Cc1cc(N2CC[C@@](C#N)(C3CC3)C2=O)cc(C(=O)NCc2cc(F)cc(-c3cnn(C4CCOCC4)c3)c2)n1` [Example 182, 4-((3S)-3-cyano-3-cyclopropyl-2-oxopyrrolidin-1-yl)-N-(3-fluoro-5-(1-(tetrahydro-2H-pyran-4-yl)-1H-pyrazol-4-yl)benzyl)-6-methylpyridine-2-carboxamide] were, in that order, 101% and 97%.
The like results for `CCn1c(C2CCCC2)nc2ccnc(C(=O)NCc3cc(F)cc(-c4cnn(C)c4)c3)c21` [Example 101, 2-cyclopentyl-3-ethyl-N-(3-fluoro-5-(1-methyl-1H-pyrazol-4-yl)benzyl)-3H-imidazo[4,5-c]pyridine-4-carboxamide] were, in that order, 102% and 98%.
Take `Cn1cc(-c2cc(C#N)cc(CNC(=O)c3ncnc4nc(C5CCCO5)n(C)c34)c2)cn1` (stereo not drawn) [Example 23, N-(3-cyano-5-(l-methyl-1H-pyrazol-4-yl)benzyl)-7-methyl-8-(tetrahydrofuran-2-yl)-7H-purine-6-carboxamide]: the inhibition at 0.3 µM in assay [1] was determined as 102%. Further, the inhibition at 1 µM in assay [2] worked out at 69%.
